Earlier results on 1 molecule are cited in patent US9044383B1, “Compounds and methods for drug delivery via a human nail” (priority 2013, dated 2015).

One series concerns obesity in subjects. The following applies: applied topically on the skin.
A further series deals with overweight and obese men. Particulars: taken orally.

For the molecule `C=C[C@@]1(C)CC(=O)[C@]2(O)[C@@]3(C)[C@@H](O)CCC(C)(C)[C@@H]3[C@H](O)[C@H](OC(C)=O)[C@@]2(C)O1` [forskolin, 7-beta-acetoxy-8,13-epoxy-1-alpha, 6-beta, 9-alpha-trihydroxylabd-14-en-1′-one], the decreasing obesity entry in the series with obesity in subjects is given as “favorable results”. For the same molecule, the “solubility in organic solvents” value (organic solvents such as ethanol, chloroform, and dimethyl surfoxide) is “soluble”. In addition, the “solubility in water (with 2% ethanol)” value (water with 2% ethanol, first dissolved in ethanol or dimethyl surfoxide at 5 mg/mL, then diluted with water) was “up to 0.2 mm”. Further, the “effectiveness as a weight loss aid” value in the series on overweight and obese men was “favorable results”.
